Holding throughout (assay type): ADME, organism-based
A short description of data set [1]: Volume of distribution at steady state in Sprague-Dawley rat at 1 mg/kg, iv. Set-up: dose 1 mg/kg, route intravenous. As to conditions: in vivo, read-out: Vdss.
The nature of data set [2]: Cmax in Sprague-Dawley rat at 2 mg/kg, po. Set-up: dose 2 mg/kg, route oral. Particulars: in vivo.
Data set [3] is described as follows: AUC in Sprague-Dawley rat at 2 mg/kg, po. As to conditions: plasma. Set-up: dose 2 mg/kg, route oral.
A short description of data set [4]: Oral bioavailability in Sprague-Dawley rat at 2 mg/kg. As to conditions: in vivo.

Broadly, the Cmax is the maximum level reached in the sampled fluid or tissue. By AUC is commonly meant the area under the concentration-time curve, a measure of exposure. A word on the bioavailability: it is the share of a dose that reaches the circulation, judged against a reference dose that is usually intravenous. Lower therefore signals poor availability. Regarding `COc1ccc2c(c1)CC(c1nc3ccc(-c4cn[nH]c4)cc3c(=O)[nH]1)CO2` (centres undefined), the Vd in data set [1] turned out to be 0.27 L/kg. Moreover, in data set [2], the Cmax amounted to 8000 nM. The AUC in data set [3] was 43.4 µM·h. The compound further gave a bioavailability in data set [4] of 66%.
Turning to `COc1ccc2c(c1)C[C@H](c1nc3ccc(-c4cn[nH]c4)cc3c(=O)[nH]1)CO2`, the Vd in data set [1] came to 0.14 L/kg. In data set [2], this compound came in with a Cmax of 2850 nM. The compound further came in with an AUC in data set [3] of 63.2 µM·h. In data set [4], this compound showed a bioavailability of 46%.
Take `COc1ccc2c(c1)C[C@@H](c1nc3ccc(-c4cn[nH]c4)cc3c(=O)[nH]1)CO2`: the Vd in data set [1] was determined as 0.49 L/kg. Moreover, the concentration in data set [2] peaked (Cmax) at 580 nM. The AUC in data set [3] was determined as 2.36 µM·h. In data set [4], the bioavailability worked out at 13%.
As for `COc1ccc2c(c1)CC(c1nc3c(OC)cc(-c4cn[nH]c4)cc3c(=O)[nH]1)CO2` (centres undefined), in data set [1], the Vd came out at 0.1 L/kg. The peak level in data set [2] (Cmax) was 4600 nM. Besides, in data set [3], the AUC worked out at 87.9 µM·h. Moreover, the bioavailability in data set [4] is 26%.
Regarding `COc1ccc2c(c1)CC(c1nc3c(OCCN(C)C)cc(-c4cn[nH]c4)cc3c(=O)[nH]1)CO2` (centres undefined), the Vd in data set [1] is 1.3 L/kg. The same compound showed a Cmax in data set [2] of 50 nM. The compound further registered an AUC in data set [3] of 0.15 µM·h. In data set [4], the bioavailability was 3%.
On to `COc1cccc(OCc2nc3c(OC)cc(-c4cn[nH]c4)cc3c(=O)[nH]2)c1`, for which, in data set [1], the Vd was 0.22 L/kg. In data set [2], this compound gave a Cmax of 660 nM. Also, the AUC in data set [3] came out at 9.63 µM·h. Further, in data set [4], the bioavailability worked out at 15%.

The values are drawn from ChEMBL document CHEMBL1681768, “Synthesis and biological evaluation of 4-quinazolinones as Rho kinase inhibitors” (Bioorg Med Chem Lett, 2011).
